According to ChEMBL document CHEMBL3124787, “Discovery of novel bis-oxazolidinone compounds as potential potent and selective antitubercular agents” (Bioorg Med Chem Lett, 2014):
Converted amounts (≈) assume the structure as drawn.

How the values were obtained:
[1] = tested on: Staphylococcus aureus; experiment: Antibacterial activity against methicillin-resistant Staphylococcus aureus ATCC 43300 assessed as growth inhibition after 18 hrs by broth microdilution method; type: functional; details: ATCC 43300, 18 h
[2] = tested on: Staphylococcus aureus; experiment: Antibacterial activity against methicillin-resistant Staphylococcus aureus ATCC 33591 assessed as growth inhibition after 18 hrs by broth microdilution method; type: functional; details: ATCC 33591, 18 h
[3] = tested on: Staphylococcus aureus; experiment: Antibacterial activity against methicillin-susceptible Staphylococcus aureus ATCC 29213 assessed as growth inhibition after 18 hrs by broth microdilution method; type: functional; details: ATCC 29213, 18 h
[4] = tested on: Staphylococcus aureus; experiment: Antibacterial activity against methicillin-susceptible Staphylococcus aureus ATCC 6538 assessed as growth inhibition after 18 hrs by broth microdilution method; type: functional; details: ATCC 6538, 18 h
[5] = tested on: Pseudomonas aeruginosa; experiment: Antibacterial activity against Pseudomonas aeruginosa ATCC 27853 assessed as growth inhibition after 18 hrs by broth microdilution method; type: functional; details: ATCC 27853, 18 h
[6] = tested on: Staphylococcus aureus; experiment: Antibacterial activity against methicillin-susceptible Staphylococcus aureus CMCC 26003 assessed as growth inhibition after 18 hrs by broth microdilution method; type: functional; details: CMCC 26003, 18 h
[7] = Lipophilicity, log P of the compound by HPLC analysis; type: physicochemical
[8] = tested on: Staphylococcus aureus; experiment: Antibacterial activity against methicillin-susceptible Staphylococcus aureus ATCC 25923 assessed as growth inhibition after 18 hrs by broth microdilution method; type: functional; details: ATCC 25923, 18 h
[9] = tested on: Escherichia coli; experiment: Antibacterial activity against Escherichia coli ATCC 25922 assessed as growth inhibition after 18 hrs by broth microdilution method; type: functional; details: ATCC 25922, 18 h
[10] = tested on: Mycolicibacterium smegmatis; experiment: Antibacterial activity against Mycobacterium smegmatis assessed as growth inhibition after 18 hrs by broth microdilution method; type: functional
[11] = Aqueous solubility of the compound by HPLC analysis; type: physicochemical
[12] = tested on: Vero; experiment: Cytotoxicity against African green monkey Vero cells after 48 hrs by MTT assay; type: cell-based; details: Chlorocebus sabaeus
[13] = Selectivity index, ratio of IC50 for African green monkey Vero cells to MIC for Mycobacterium tuberculosis H37RV ATCC 27294; type: toxicity, cell-based; details: read-out: Selectivity Index
[14] = tested on: Mycobacterium tuberculosis; experiment: Antitubercular activity against Mycobacterium tuberculosis H37RV ATCC 27294 assessed as growth inhibition after 3 to 11 days by microdilution method; type: functional

SMILES | MIC99 [1] [µg/mL] | MIC99 [2] [µg/mL] | MIC99 [3] [µg/mL] | MIC99 [4] [µg/mL] | MIC99 [5] [µg/mL] | MIC99 [6] [µg/mL] | logP [7] | MIC99 [8] [µg/mL] | MIC99 [9] [µg/mL] | MIC99 [10] [µg/mL] | solubility [11] [µM] | IC50 [12] [µg/mL] | selectivity ratio [13] | MIC [14] [µg/mL]
CC(=O)NC[C@H]1CN(c2ccc(OC[C@@H](O)CNCCC(C)C)c(F)c2)C(=O)O1 | > 32 | > 32 | > 32 | > 32 | > 32 | > 32 | 1.17 | > 32 | > 32 | > 64 | 385 (≈ 158 µg/mL) |  |  | 
CC(=O)NC[C@H]1CN(c2ccc(OC[C@H](O)CNc3ccncc3)c(F)c2)C(=O)O1 | > 32 | > 32 | > 32 | > 32 | > 32 | > 32 | 0.02 | > 32 | > 32 | > 64 | 24600 (≈ 10300 µg/mL) |  |  | 
CC(=O)NC[C@H]1CN(c2ccc(OC[C@@H](O)CNC3CC3)c(F)c2)C(=O)O1 | > 32 | > 32 | > 32 | > 32 | > 32 | > 32 | 0.02 | > 32 | > 32 | 32 (≈ 83.9 µM) | 96000 (≈ 36600 µg/mL) |  |  | 
CC(=O)NC[C@H]1CN(c2ccc(OC[C@H](O)CNC3CC3)c(F)c2)C(=O)O1 | > 32 | > 32 | > 32 | > 32 | > 32 | > 32 | -0.1 | > 32 | > 32 | > 64 | 2200 (≈ 840 µg/mL) |  |  | 
CC(=O)NC[C@H]1CN(c2ccc(OC[C@H](O)CNCCC(C)C)c(F)c2)C(=O)O1 | > 32 | > 32 | > 32 | > 32 | > 32 | > 32 | 1.19 | > 32 | > 32 | > 64 | 7280 (≈ 2990 µg/mL) |  |  | 
COc1ccc(N2C[C@@H](COc3ccc(N4C[C@H](CNC(C)=O)OC4=O)cc3F)OC2=O)cc1 | 16 (≈ 33.8 µM) | 16 (≈ 33.8 µM) | 16 (≈ 33.8 µM) | 8 (≈ 16.9 µM) | > 32 | 8 (≈ 16.9 µM) | 1.91 | 16 (≈ 33.8 µM) | > 32 | > 64 | 132 (≈ 62.5 µg/mL) | 19.1 (≈ 40.3 µM) | 152 | 0.125 (≈ 0.264 µM)
COc1ccc(N2C[C@H](COc3ccc(N4C[C@H](CNC(C)=O)OC4=O)cc3F)OC2=O)cc1 | 4 (≈ 8.45 µM) | 8 (≈ 16.9 µM) | 8 (≈ 16.9 µM) | 4 (≈ 8.45 µM) | > 32 | 4 (≈ 8.45 µM) | 1.73 | 8 (≈ 16.9 µM) | > 32 | > 64 | 211 (≈ 99.9 µg/mL) | 107 (≈ 226 µM) | 428 | 0.25 (≈ 0.528 µM)
CC(=O)NC[C@H]1CN(c2ccc(OC[C@@H]3CNC(=O)O3)c(F)c2)C(=O)O1 |  |  |  |  |  |  | 0.01 |  |  |  | 2720 (≈ 999 µg/mL) |  |  | 8 (≈ 21.8 µM)
CC(=O)NC[C@H]1CN(c2ccc(NC[C@H](O)COc3ccc(N4C[C@H](CNC(C)=O)OC4=O)cc3F)c(F)c2)C(=O)O1 |  |  |  |  |  |  | 0.59 |  |  |  | 81 (≈ 47.9 µg/mL) |  |  | 32 (≈ 54.1 µM)
CC(=O)NC[C@H]1CN(c2ccc(OC[C@@H]3CN(c4ccc(N5C[C@H](CNC(C)=O)OC5=O)cc4F)C(=O)O3)c(F)c2)C(=O)O1 |  |  |  |  |  |  | 0.43 |  |  |  | 333 (≈ 206 µg/mL) |  |  | 16 (≈ 25.9 µM)
O=C1O[C@H](COc2ccccc2F)CN1c1ccccc1 |  |  |  |  |  |  | 3.19 |  |  |  | 441 (≈ 127 µg/mL) |  |  | 32 (≈ 111 µM)
COc1ccc(NC[C@H](O)COc2ccc(N3C[C@H](CNC(C)=O)OC3=O)cc2F)cc1 | 8 (≈ 17.9 µM) | 16 (≈ 35.8 µM) | 8 (≈ 17.9 µM) | 4 (≈ 8.94 µM) | > 32 | 4 (≈ 8.94 µM) | 0.95 | 8 (≈ 17.9 µM) | > 32 | 64 (≈ 143 µM) | 56 (≈ 25.1 µg/mL) |  |  | 8 (≈ 17.9 µM)
COc1ccc(NC[C@@H](O)COc2ccc(N3C[C@H](CNC(C)=O)OC3=O)cc2F)cc1 | 16 (≈ 35.8 µM) | 16 (≈ 35.8 µM) | 16 (≈ 35.8 µM) | 8 (≈ 17.9 µM) | > 32 | 8 (≈ 17.9 µM) | 1.15 | 16 (≈ 35.8 µM) | > 32 | 64 (≈ 143 µM) | 1.3 (≈ 0.582 µg/mL) |  |  | 
